The text below walks through data of ChEMBL document CHEMBL1201862, “PubChem BioAssay data set” (2004).

The source made the active and inactive calls.

In one assay the target is Aurora kinase A (Homo sapiens, UniProt O14965). Type of assay: functional.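 Further: value from the Navigating the Kinome kinase panel profiling, panel entry STK6.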
Assay [1] addresses Cyclin-dependent kinase 19 (Homo sapiens, UniProt Q9BWU1). Kind of assay: Navigating the Kinome. Panel member name: CDC2L6. Format: functional.
A further assay has as its target Aurora kinase B (Homo sapiens, UniProt Q96GD4). Format: functional.
Assay [2] has as its target Serine/threonine-protein kinase PAK 1 (Homo sapiens, UniProt Q13153). Format: functional.
Another assay deals with SRSF protein kinase 1 (Homo sapiens, UniProt Q96SB4). Format: functional.
Chain of SRSF protein kinase 1 (Q96SB4 whole entry): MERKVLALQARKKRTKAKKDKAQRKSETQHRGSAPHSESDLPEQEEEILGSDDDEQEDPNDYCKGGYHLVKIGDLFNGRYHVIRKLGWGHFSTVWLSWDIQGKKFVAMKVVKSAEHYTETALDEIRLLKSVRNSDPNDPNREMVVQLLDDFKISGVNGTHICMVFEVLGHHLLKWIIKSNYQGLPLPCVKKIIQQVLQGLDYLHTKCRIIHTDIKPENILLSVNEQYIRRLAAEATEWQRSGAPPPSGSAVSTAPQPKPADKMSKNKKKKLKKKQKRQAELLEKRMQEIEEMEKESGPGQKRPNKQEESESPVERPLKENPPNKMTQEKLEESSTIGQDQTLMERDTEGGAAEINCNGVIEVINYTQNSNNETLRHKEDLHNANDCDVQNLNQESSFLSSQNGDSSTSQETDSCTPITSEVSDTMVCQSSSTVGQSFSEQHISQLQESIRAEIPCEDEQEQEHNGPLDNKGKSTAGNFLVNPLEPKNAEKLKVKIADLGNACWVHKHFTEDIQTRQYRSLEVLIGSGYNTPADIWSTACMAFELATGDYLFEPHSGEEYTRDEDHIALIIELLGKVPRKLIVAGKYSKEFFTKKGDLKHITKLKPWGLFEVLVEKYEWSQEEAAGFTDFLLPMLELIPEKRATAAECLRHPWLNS
Assay [3] concerns the target Interleukin-1 receptor-associated kinase 4 (Homo sapiens, UniProt Q9NWZ3). Format: functional.
The target in assay [4] is Sphingosine 1-phosphate receptor 4 (Homo sapiens, UniProt O95977). The assay can be described thus: Late-stage fluorescence-based dose-response cell-based counterscreen assay to identify agonists of the Sphingosine 1-Phosphate Receptor 3 (S1P3): Sphingosine 1-Phosphate Receptor 4 (S1P4) agonist assay. Format: functional.
Chain of Sphingosine 1-phosphate receptor 4 (O95977 whole entry): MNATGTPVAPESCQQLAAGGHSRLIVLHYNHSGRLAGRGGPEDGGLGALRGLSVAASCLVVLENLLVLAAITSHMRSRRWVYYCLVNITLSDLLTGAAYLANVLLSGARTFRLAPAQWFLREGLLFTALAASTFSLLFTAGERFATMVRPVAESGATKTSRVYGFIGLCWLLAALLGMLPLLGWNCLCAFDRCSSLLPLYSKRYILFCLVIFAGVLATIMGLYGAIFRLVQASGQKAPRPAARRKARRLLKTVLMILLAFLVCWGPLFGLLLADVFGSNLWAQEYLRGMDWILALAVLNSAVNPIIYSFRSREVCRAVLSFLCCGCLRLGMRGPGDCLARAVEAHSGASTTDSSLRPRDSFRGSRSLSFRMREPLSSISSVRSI
Assay [5] addresses Sphingosine 1-phosphate receptor 2 (Homo sapiens, UniProt O95136). Kind of assay: Late-stage fluorescence-based dose-response cell-based counterscreen assay to identify agonists of the Sphingosine 1-Phosphate Receptor 3 (S1P3): Sphingosine 1-Phosphate Receptor 2 (S1P2) agonist assay. Format: functional.
In assay [6] the target is Multidrug resistance protein CDR2 (Candida albicans (strain SC5314 / ATCC MYA-2876) (Yeast), UniProt P78595). The assay can be described thus: CaCDR2 efflux pump inhibitors in yeast, dose response, S. cerevisiae AD1-8u, singleplex, Cherry Pick1 hits (AID 588604). Type of assay: functional.
Assay [7] in a line: Luminescence Cell-Based Dose Retest to Confirm Inhibitors of Cancer Stem Cells. [Related pubchem assays (depositor defined):AID2717, AID2721]. Format: functional. To be noted: Homo sapiens.
For another assay, the system named is HEK293. The assay can be described thus: inhibitors of LMP1-driven NF-kB reporter, dose response, cell-based, HEK293, luciferase, cherry-pick (AID 588343). Format: functional. To be noted: Homo sapiens.
A short description of assay [8]: inhibitors of firefly luciferase expression or activity, dose response, H4 neuroglioma cells, luminescence (AID 1990). Type of assay: functional, cell-based.
A short description of assay [9]: inhibitors of SNCA 5'UTR-driven reporter translation, confirmation, H4 neuroglioma cells, luminescence (AID 1988). Format: functional, cell-based.
Assay [10] in a line: cells. Type of assay: functional, cell-based.
Assay [11] is described as follows: cells. Format: functional, cell-based. The source holds these as a separate data set.
Another assay concerns INS1. The assay can be described thus: beta cell apoptosis inhibitors, cytokine rescue, dose response, luminescence, retest (AID 449756).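 Further: cell death triggered by IL-1 beta plus TNF-alpha plus IFN-gamma mixture; protective hits raise ATP signal compared with cytokine alone wells.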 Type of assay: functional, cell-based. To be noted: Rattus norvegicus.
The nature of assay [12]: insulin promoter down-regulators in MIN6 cells, imaging, high-content screening, mouse beta cells (AID 1628). Type of assay: functional.
Assay [13] can be described thus: cytotoxicity in MIN6 insulinoma cells, dose response, cytotoxicity control, cell-based, mouse insulinoma (AID 2122).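 Further: confirmatory high-throughput counterscreen run to flag cytotoxic compounds; mouse MIN-6 beta cells carrying an insulin promoter eGFP reporter.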 Format: functional.
Assay [14] in a line: Luminescence Cell-Based Dose Response HTS to Identify Inhibitors of 5'UTR Stem-Loop Driven Prion Protein mRNA Translation in H4 Neuroglioblastoma Cells. [Related pubchem assays: 1827 (Project Summary), 1813 (Primary HTS)]. Format: functional.
Assay [15] deals with Latent membrane protein 1 (Human herpesvirus 4 (strain B95-8), UniProt P03230). Kind of assay: TES1-eGFP NF-kB reporter inhibition versus Tet-On dsRED, dose response, selectivity assay for LMP1 NF-kB inhibitor project, imaging, HEK293T, dual-color eGFP/dsRED, cherry-picks (AID 588398). Format: functional, cell-based.
Chain of Latent membrane protein 1 (P03230 whole entry): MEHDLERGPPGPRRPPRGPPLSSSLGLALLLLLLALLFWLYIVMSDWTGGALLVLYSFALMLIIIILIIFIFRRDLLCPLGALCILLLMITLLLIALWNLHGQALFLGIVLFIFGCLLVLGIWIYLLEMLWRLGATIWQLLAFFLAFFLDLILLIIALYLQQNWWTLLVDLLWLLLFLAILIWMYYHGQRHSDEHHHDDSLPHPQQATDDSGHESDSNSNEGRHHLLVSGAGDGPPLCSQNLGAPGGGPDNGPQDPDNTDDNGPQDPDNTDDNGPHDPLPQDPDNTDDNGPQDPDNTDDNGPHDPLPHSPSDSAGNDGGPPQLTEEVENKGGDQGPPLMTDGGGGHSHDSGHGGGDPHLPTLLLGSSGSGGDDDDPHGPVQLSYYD

By Ki is commonly meant a measure of affinity in units of concentration, obtained from inhibition or displacement. As usually defined, the EC50 is the concentration needed to bring the measured effect to its halfway point. As usually defined, the AC50 is the concentration giving half of the maximal activity seen. For orientation: IC50 means the midpoint of a concentration-inhibition curve.

Chain of Aurora kinase A (O14965 whole entry): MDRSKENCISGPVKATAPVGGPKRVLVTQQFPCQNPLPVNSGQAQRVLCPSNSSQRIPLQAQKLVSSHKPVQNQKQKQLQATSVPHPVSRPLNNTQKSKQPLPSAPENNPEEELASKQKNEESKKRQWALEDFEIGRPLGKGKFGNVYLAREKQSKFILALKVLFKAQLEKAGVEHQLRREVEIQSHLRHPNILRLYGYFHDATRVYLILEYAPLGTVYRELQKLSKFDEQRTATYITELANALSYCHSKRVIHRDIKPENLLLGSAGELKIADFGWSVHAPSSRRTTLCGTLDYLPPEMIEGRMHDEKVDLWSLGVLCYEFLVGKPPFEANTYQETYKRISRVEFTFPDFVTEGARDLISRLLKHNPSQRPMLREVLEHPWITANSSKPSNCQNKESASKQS
Chain of Sphingosine 1-phosphate receptor 2 (O95136 whole entry): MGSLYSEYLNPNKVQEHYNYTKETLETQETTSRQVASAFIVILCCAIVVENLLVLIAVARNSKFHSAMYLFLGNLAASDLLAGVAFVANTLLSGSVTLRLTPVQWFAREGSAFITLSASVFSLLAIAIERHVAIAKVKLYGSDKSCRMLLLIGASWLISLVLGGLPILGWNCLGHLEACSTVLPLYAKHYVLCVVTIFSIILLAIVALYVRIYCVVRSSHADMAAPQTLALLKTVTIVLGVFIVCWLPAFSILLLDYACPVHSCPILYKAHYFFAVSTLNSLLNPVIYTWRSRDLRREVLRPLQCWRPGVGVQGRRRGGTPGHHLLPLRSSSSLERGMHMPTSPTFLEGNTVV
Chain of Cyclin-dependent kinase 19 (Q9BWU1 whole entry): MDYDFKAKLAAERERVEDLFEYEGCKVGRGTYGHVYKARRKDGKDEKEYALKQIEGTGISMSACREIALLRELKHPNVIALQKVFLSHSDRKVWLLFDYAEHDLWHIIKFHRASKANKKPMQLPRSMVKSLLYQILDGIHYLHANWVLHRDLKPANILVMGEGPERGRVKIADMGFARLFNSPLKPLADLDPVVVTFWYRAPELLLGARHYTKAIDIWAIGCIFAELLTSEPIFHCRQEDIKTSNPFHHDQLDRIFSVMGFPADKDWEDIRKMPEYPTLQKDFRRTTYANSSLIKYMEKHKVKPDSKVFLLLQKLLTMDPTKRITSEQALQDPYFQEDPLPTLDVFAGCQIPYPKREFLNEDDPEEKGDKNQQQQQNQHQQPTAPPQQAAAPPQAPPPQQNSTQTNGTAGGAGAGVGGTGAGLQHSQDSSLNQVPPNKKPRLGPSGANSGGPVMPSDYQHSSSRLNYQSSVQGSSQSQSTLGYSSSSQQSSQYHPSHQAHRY
Chain of Aurora kinase B (Q96GD4 whole entry): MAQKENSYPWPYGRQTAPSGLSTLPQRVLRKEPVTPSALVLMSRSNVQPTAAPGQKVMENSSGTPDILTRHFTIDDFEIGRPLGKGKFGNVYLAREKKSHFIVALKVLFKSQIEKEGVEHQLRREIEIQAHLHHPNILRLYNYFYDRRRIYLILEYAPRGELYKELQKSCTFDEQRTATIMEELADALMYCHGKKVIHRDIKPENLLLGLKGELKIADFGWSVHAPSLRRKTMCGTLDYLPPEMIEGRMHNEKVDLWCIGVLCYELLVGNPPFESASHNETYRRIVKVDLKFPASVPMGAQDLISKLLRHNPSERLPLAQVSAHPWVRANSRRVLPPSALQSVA
Chain of Serine/threonine-protein kinase PAK 1 (Q13153 whole entry): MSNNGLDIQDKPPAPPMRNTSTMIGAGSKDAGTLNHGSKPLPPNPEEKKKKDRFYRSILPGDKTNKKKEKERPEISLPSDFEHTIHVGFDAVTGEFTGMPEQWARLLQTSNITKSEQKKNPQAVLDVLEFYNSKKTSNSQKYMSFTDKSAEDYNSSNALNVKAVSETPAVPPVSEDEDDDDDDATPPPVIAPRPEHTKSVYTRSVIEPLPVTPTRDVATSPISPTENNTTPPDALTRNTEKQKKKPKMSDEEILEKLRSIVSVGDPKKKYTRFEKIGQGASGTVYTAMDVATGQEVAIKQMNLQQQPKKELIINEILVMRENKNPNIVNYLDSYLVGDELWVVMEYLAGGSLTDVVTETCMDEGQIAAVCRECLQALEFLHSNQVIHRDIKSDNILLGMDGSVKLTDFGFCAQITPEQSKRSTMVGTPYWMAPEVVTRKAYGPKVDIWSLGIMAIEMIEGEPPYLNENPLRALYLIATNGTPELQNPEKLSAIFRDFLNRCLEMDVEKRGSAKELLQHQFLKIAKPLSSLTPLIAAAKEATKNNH
Chain of Interleukin-1 receptor-associated kinase 4 (Q9NWZ3 whole entry): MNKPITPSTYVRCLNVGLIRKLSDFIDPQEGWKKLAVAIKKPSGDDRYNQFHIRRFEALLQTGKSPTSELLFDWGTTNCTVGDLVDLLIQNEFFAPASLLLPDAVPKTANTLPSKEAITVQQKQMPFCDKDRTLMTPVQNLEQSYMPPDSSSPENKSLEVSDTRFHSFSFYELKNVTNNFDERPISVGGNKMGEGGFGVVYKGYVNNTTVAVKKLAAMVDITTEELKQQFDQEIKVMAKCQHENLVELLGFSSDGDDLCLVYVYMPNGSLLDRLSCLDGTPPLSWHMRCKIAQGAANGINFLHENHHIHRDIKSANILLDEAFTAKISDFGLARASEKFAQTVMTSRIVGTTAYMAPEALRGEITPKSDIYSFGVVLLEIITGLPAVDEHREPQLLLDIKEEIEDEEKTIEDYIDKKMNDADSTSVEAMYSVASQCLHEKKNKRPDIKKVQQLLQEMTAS

As for `Cc1oc2ncnc(N)c2c1-c1ccc(NC(=O)Nc2cccc(C(F)(F)F)c2)cc1`, the Ki was 79.4 nM (active) at Aurora kinase A, 3.98 µM (active) in [1] and 12.6 nM (active) on Aurora kinase B.
`Cc1ccc(C2(c3ccc(C)cc3)CC2C(=O)Nc2ccncc2)cc1` (stereo not given): the figures for the Ki (in [2]; on SRSF protein kinase 1; in assay [3]) were > 10 µM (inactive), 2.51 µM (active) and > 10 µM (inactive), respectively.
`O=C(c1cc(C2CC2)on1)N(CC1CCCCC1)C1CCCCC1`: the EC50 in [4] and in [5] was > 50 µM (inactive) throughout.
Regarding `COc1cccc(-c2sc3ccc(OC)cc3c2-c2ccc(OCCN3CCCCC3)cc2)c1`, the EC50 in assay [6] is 11.2 µM (active).
For the compound `CCOC(=O)c1c(C)[nH]c(C(=O)N/N=C\c2ccccc2O)c1C`, the AC50 was 3.54 µM (active) in [7], 4.91 µM (active) in the assay on HEK293, 1.69 µM (active) with INS1 and 14.6 µM (active) in [15]. Further, the EC50 in assay [8] is > 120 µM (not active); in assay [9], 8.44 µM (active); in the assay “cells [10]”, 41.9 µM (active); in the assay “cells [11]” it was 6.77 µM (active); in [14] it was > 120 µM (not active). Moreover, the IC50 in [12] is 2.25 µM (active); in assay [13], 1.99 µM (active).
